In US20120264159A1, “SCREENING SYSTEM FOR MODULATORS OF HER2 MEDIATED TRANSCRIPTION AND HER2 MODULATORS IDENTIFED THEREBY” (BUCK INSTITUTE FOR AGE RESEARCH, priority 2001, published 2012):
Converted amounts (≈) assume the structure as drawn. Starred links: 1 amine or outer side, 2 acyl side, 3 side chain; linkers in the order of their positions; H or OH if unused. Positions of bridges follow the written chain, without caps; N, C: chain ends. Non-standard residues stand in square brackets, D forms with d. Residues, ends and D or L forms follow the SMILES beside them. Chains are numbered I, II in the order given. Actinocin(9to1) = Cc1c2oc3c(C)ccc(C(=O)[*:1])c3nc-2c(C(=O)[*:2])c(N)c1=O; NMeV = CN[C@H](C(=O)O)C(C)C; Sar = CNCC(=O)O

What was measured:
BT-474 cells = test: In vitro antitumor activity against ErbB2-amplified BT-474 cells; assay type: cell-based
Procedure: FIG. 9 illustrates validation of NSC-176328 antitumor selectivity. ErbB2-positive human cancer cells are 8.5-fold more sensitive to NSC-176328 than a panel of ErbB2-negative cancer cells. In vitro antitumor activity against ErbB2-amplified BT-474 cells of free and liposome- or immunoliposome-encapsulated Ellipticine (NSC-176328). 6-3-aminopropylellipticine (AE; NSC 176328) was administered to cell cultures as free drug or after being encapsulated into liposomes (L-AE) or immunoliposomes (ILS-AE); the former prevent escape and cell exposure to free AE, the latter specifically internalize into and release AE within ErbB2 overexpressing tumor cells.

[1] = system: NCI panel of 60 human cancer cell lines; conditions: free drug, cell lines not overexpressing ErbB2; cited from earlier work
ErbB2 transcript = test: Northern blot of ErbB2 transcript levels in ErbB2 overexpressing breast cancer cells; assay type: cell-based, human
Procedure: The conserved and singular DNase I hypersensitivity sites found in the proximal ErbB2 and ESX promoters (12,15) were assayed as before (12). Briefly, following culture treatment of cells, nuclei isolated by mild detergent lysis in a buffer containing 10 mM Hepes pH 7.9, 1.5 mM MgCl2, 10 mM KCl, 0.4% NP-40, 10% glycerol and 1 mM DTT. Partial DNase I digestions were carried out by varying DNase I treatment times (0-15 minutes at 37( ) at a fixed DNase I concentrations (0.5-1.0 units per 10^6 nuclei). After purifying and restricting the DNA, it was electrophoresed through 0.7% agarose gels and blotted onto nylon membranes, UV-crosslinked and hybridized with randomly ^32P-labelled ErbB2 and ESX promoter probes, as similarly performed for routine Southern blotting. For Northern blotting, total (treated vs. control) cell RNA (10 μg/sample lane) was isolated using TRIzol (Invitrogen) according to manufacturer's specifications, electrophoresed into 1% agarose-formaldehyde gels and transferred onto membranes that were then hybridized with ^32P-labelled ErbB2 and ESX cDNA probes. For transcriptional run-off assays cell nuclei were first isolated from treated and control cells as described for the DNase I studies. Elongatation of initiated nascent RNA chains was performed at 37 (C for 30 minutes using ˜5×10^6 nuclei per reaction in a buffer containing 10 mM Tris pH7.5, 2.5 mM MgCl2, 150 mM KCl, 1 mM DTT, 10% glycerol, 0.5 mM ATP, GTP and CTP, and 100 μCi of [α-^32P]UTP (800 Ci/mmol). Nuclear RNA was purified by the addition of 100 units of RNase-free DNase I (Roche) per reaction for 2 minutes followed by TRIzol processing. Radiolabelled RNA was hybridized (˜4×10^6 cpm) at 68 (C in ExpressHyb (Clontech) for 24 hours to nylon filter membranes previously slotted with 0.5 μg per slot of unlabelled ErbB2 cDNA fragments (from either the transmembrane or C-terminal domains), ESX cDNA fragments, and empty plasmid control, as we have previously described (16). Filters were washed at 64 (C in 0.2 SSC and 0.5% SDS. For Western blotting, whole-cell extracts from control vs. treated cells were boiled in sample loading buffer (1% SDS, 20% glycerol, 100 mM DTT, 50 mM Tris, pH 6.8), gel lanes loaded for constant total protein (15 μg), electrophoresed into 9% sodium dodecyl sulfacte polyacrylamide (SDS-PAGE) gels, transferred onto membranes (Immobilon-P, Millipore), and the protein-bound membranes hybridized with a primary antibody followed by a horseradish peroxidase-conjugated secondary antibody (Sigma), and specific protein bands visualized by chemiluminescent substrate (Pierce), as previously described (10).

ESX transcript = test: Northern blot of ESX transcript levels in SKBR3 cells; assay type: cell-based, human; conditions: 5 hours Act D
Procedure: The conserved and singular DNase I hypersensitivity sites found in the proximal ErbB2 and ESX promoters (12,15) were assayed as before (12). Briefly, following culture treatment of cells, nuclei isolated by mild detergent lysis in a buffer containing 10 mM Hepes pH 7.9, 1.5 mM MgCl2, 10 mM KCl, 0.4% NP-40, 10% glycerol and 1 mM DTT. Partial DNase I digestions were carried out by varying DNase I treatment times (0-15 minutes at 37( ) at a fixed DNase I concentrations (0.5-1.0 units per 10^6 nuclei). After purifying and restricting the DNA, it was electrophoresed through 0.7% agarose gels and blotted onto nylon membranes, UV-crosslinked and hybridized with randomly ^32P-labelled ErbB2 and ESX promoter probes, as similarly performed for routine Southern blotting. For Northern blotting, total (treated vs. control) cell RNA (10 μg/sample lane) was isolated using TRIzol (Invitrogen) according to manufacturer's specifications, electrophoresed into 1% agarose-formaldehyde gels and transferred onto membranes that were then hybridized with ^32P-labelled ErbB2 and ESX cDNA probes. For transcriptional run-off assays cell nuclei were first isolated from treated and control cells as described for the DNase I studies. […]

RO6 HER2 promoter [2] = test: Basal promoter activity of MCF-7b stable RO6 populations; assay type: cell-based, human; conditions: 10 nM, 24 hours, serum-free media, clone and polyclonal populations
Procedure: (§1) Parental cell lines MCF-7, and MDA-453 were transfected with the construct Ro6pGL (FIG. 2) in conjunction with pcMneo construct using lipid-based transfection (Effectene) at a ratio of 20:1 reporter:selectable marker (see, FIG. 4). Monoclonal and polyclonal populations were selected in 0.5 mg/ml G418 over 2 to 4 weeks.
(§2) Reporter activity was assayed as follows: From T-150 or T-75 culture flasks, about […] cells/well were plated into a 96 well plate format for high-throughput screening. 24 hours post plating a test agent e.g. a drug from a combinatorial library, was added to the wells at various concentrations. Certain wells were used as controls (e.g. PBS or DMSO vehicle only). Replicate wells ([…] per drug concentration) were run. 24 hours after addition of the test agent the cells were lysed, a luciferase reagent was added and activity in each well was read using a high-throughput screening plate reader (labsystems Fluoroskan). Parallel plates were run for cell viability using an MTT assay (Sigma).

RO6 HER2 promoter [3] = test: Basal promoter activity of MDA-453 stable RO6 polyclonal populations; assay type: cell-based, human; conditions: 10 nM TPA in DMSO, 8 and 48 hr, presence of serum, compared with DMSO only
Procedure: as §1
Reporter activity was assayed as follows: From T-150 or T-75 culture flasks, about […] cells/well were plated into a 96 well plate format for high-throughput screening. 24 hours post plating a test agent e.g. a drug from a combinatorial library, was added to the wells at various concentrations. Certain wells were used as controls (e.g. PBS or DMSO vehicle only). Replicate wells ([…] per drug concentration) were run. […] Parallel plates were run for cell viability using an MTT assay (Sigma).

ErbB2 promoter = test: Genomically integrated ErbB2 promoter-luciferase reporter screen in MCF/R06pGL-9 cells; assay type: cell-based, human; conditions: 24 h treatment
Procedure: as §2
A luciferase reporter plasmid (designated RO6pGL-luc) was constructed by inserting the ˜500 bp SmaI-SmaI fragment of the human ErbB2 proximal promoter (12) into the pGL3Basic plasmid driving a luciferase reporter gene, as has been described (10). R06pGL-luc and a plasmid expressing neomycin phosphotransferase were co-transfected into the MCF-7 cells (ATCC) using Effectene (Qiagen). Cells were selected for stable expression of luciferase and neomycin (G418)-resistance. […] The reaction was quantified by absorbance at 570 nm measured with a microplate reader (Molecular Devices) and the mean (±SD) optical density recorded after normalization by the vehicle treated controls. […]

Cc1c2cnccc2c(C)c2c1c1ccccc1n2CCCN [AE, 6-3-aminopropylellipticine]
sensitivity of ErbB2-positive vs ErbB2-negative cancer cells (BT-474 cells; BT-474 vs NCI panel of ErbB2-negative cancer cells): 8.5 fold
LC50 (BT-474 cells; free drug, ErbB2 overexpressing BT-474 cells): 200 µg/mL (≈ 659 µM)
average LC50 [1]: 1700 µg/mL

Cc1c2oc3c(C)ccc(C(=O)N[C@@H]4C(=O)N[C@H](C(C)C)C(=O)N5CCC[C@H]5C(=O)N(C)CC(=O)N(C)[C@@H](C(C)C)C(=O)O[C@@H]4C)c3nc-2c(C(=O)N[C@@H]2C(=O)N[C@H](C(C)C)C(=O)N3CCC[C@H]3C(=O)N(C)CC(=O)N(C)[C@@H](C(C)C)C(=O)O[C@@H]2C)c(N)c1=O [Act D, actinomycin D] (I: T[dV]P[Sar][NMeV] / II: T[dV]P[Sar][NMeV]; ester I:1-I:C, II:1-II:C; linker I:N-II:N via Actinocin(9to1))
ErbB2 mRNA level / decay (ErbB2 transcript; SKBR3 cells, 5 hours treatment, TSA 0.05 or 0.40 μM, Act D 10 μg/ml): only a slight reduction in ErbB2 mRNA level
ESX mRNA level (ESX transcript): complete loss of the short-lived ESX mRNA

CCCCCCCCCCCCCC(=O)O[C@@H]1[C@@H](C)[C@@]2(O)[C@@H](C=C(CO)C[C@]3(O)C(=O)C(C)=C[C@@H]23)[C@@H]2C(C)(C)[C@]12OC(C)=O [TPA]
basal promoter activity (RO6 HER2 promoter [2]): decreased basal promoter activity
basal promoter activity (RO6 HER2 promoter [3]): no significant effect on basal promoter activity

C[C@@H]1C[C@@H]([C@H](O)CC2CC(=O)NC(=O)C2)C(=O)[C@@H](C)C1 [cycloheximide]
effect on TSA induced ErbB2 transcript decay (ErbB2 transcript; BT-474 or MDA-453 cells (data not shown)): no ability to arrest TSA induced ErbB2 transcript decay
ErbB2 transcript levels in control cells (ErbB2 transcript; SKBR3 cells, 50 μg/ml): no effect on ErbB2 transcript levels in control cells
effect on TSA induced accelerated ErbB2 mRNA degradation (ErbB2 transcript; SKBR3 cells, 50 μg/ml): completely inhibited the accelerated ErbB2 mRNA degradation induced by TSA

CCCC(=O)[O-].[Na+] [sodium butyrate]
ErbB2 promoter-reporter (luciferase) activity (ErbB2 promoter): significantly represses
ErbB2 transcript levels (ErbB2 transcript; 3 mM × 24 hours (data not shown)): Virtually complete elimination of ErbB2 transcript levels
